Among the data in patent US12599672B2, “KRAS proteolysis targeting chimeras” (PAQ Therapeutics Inc., priority 2023, dated 2026) are DC50 and Dmax values, retold here.

Assay type in all cases: cell-based
The target in one experiment is T1, KRAS G12D (Homo sapiens, UniProt P01116, G12D).
T1 construct: AsPc-1-KRAS (G12D)-HiBit-KI cell (Pharmaron); host or cells: AsPc-1-KRAS (G12D)-HiBit-KI cells (HiBiT knock-in at the endogenous KRAS locus)
The experiment in a line: KRAS G12D HiBit assay. The note with it: AsPc-1-KRAS (G12D)-HiBit-KI cell, compound treatment for 24 hours; for DC50: absolute DC50. Put shortly:
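Cells were treated for 24 h with compounds in a 3-fold, 10-point dilution series from a 0.3 mM DMSO stock, then equilibrated 15 min at room temperature. KRAS G12D HiBiT levels were read by luminescence after lytic Nano-Glo HiBiT reagent with LgBiT; inhibition calculated relative to 0.1% DMSO high control.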
In general terms: The HiBiT peptide binds its large partner to form an active luciferase.

In another experiment the target is T2, KRAS G12V (Homo sapiens, UniProt P01116, G12V).
T2 construct: SW620-KRAS (G12V)-HiBit-KI cell (Pharmaron); host or cells: SW620-KRAS (G12V)-HiBit-KI cells (HiBiT knock-in at the endogenous KRAS locus)
T2 sequence (P01116 1-188 isoform P01116-2 G12V): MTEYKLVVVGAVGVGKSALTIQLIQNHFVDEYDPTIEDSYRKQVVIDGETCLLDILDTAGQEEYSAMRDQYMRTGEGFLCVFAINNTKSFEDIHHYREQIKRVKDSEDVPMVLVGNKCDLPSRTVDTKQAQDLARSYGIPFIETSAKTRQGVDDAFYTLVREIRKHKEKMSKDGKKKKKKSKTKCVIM
Nature of the experiment: KRAS G12V HiBit assay. The note with it: SW620-KRAS (G12V)-HiBit-KI cells, compound treatment for 24 hours, class symbols. The method, boiled down: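 HiBiT-tagged KRAS G12V cells treated 24 h with compound in a 3-fold, 10-point series (0.3 mM DMSO stock); lytic HiBiT reagent with LgBiT added after 15 min room-temperature equilibration. Degradation calculated against 0.1% DMSO high control.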

In the next experiment the target is T3, KRAS (Homo sapiens, UniProt P01116).
T3 construct: endogenous in cells; host or cells: KE39 (KRAS amplified) cells
T3 sequence (P01116 1-188 isoform P01116-2): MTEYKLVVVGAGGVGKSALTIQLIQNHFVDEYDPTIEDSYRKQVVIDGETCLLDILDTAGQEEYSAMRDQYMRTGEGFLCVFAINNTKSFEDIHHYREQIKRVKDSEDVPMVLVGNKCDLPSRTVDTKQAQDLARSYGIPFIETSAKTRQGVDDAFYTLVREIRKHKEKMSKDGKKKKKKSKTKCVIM
The experiment in a line: KRASamp MSD assay. The note with it: KE39 (KRAS amplified) cells, treated with test compounds for 24 hr, MSD readout of KRAS degradation. The method, boiled down: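 KRAS-amplified KE39 cells treated with compound for 24 hr, then lysed in RIPA buffer with protease/phosphatase inhibitors. KRAS protein measured by MSD sandwich immunoassay against a recombinant WT KRAS standard curve; DC50 derived from curve fitting of degradation.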

T1 sequence (P01116 1-188 isoform P01116-2 G12D): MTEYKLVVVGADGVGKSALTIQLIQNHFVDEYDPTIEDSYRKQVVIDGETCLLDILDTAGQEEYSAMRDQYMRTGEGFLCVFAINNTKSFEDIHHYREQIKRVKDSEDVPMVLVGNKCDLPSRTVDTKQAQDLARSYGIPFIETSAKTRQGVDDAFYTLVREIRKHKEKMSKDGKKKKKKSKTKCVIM

For `CCc1c(F)ccc2cc(O)cc(-c3ncc4c(N5CCC[C@@](C)(O)C5)nc(OC[C@@]56CCCN5[C@H](COC(=O)Nc5ccc(CN7CCC(c8ccc9c(c8)n(C)c(=O)n9C8CCC(=O)NC8=O)CC7)cc5)CC6)nc4c3F)c12` (stereo partly drawn) [Compound 450, ((3S,7aS)-7a-(((7-(8-ethyl-7-fluoro-3-hydroxynaphthalen-1-yl)-8-fluoro-4-((R)-3-hydroxy-3-methylpiperidin-1-yl)pyrido[4,3-d]pyrimidin-2-yl)oxy)methyl)hexahydro-1H-pyrrolizin-3-yl)methyl (4-((4-(1-(2,6-dioxopiperidin-3-yl)-3-methyl-2-oxo-2,3-dihydro-1H-benzo[d]imidazol-5-yl)piperidin-1-yl)methyl)phenyl)carbamate], the values for the DC50 on KRAS G12D (class symbols), at KRAS G12V and on KRAS were less than 100 nM, less than 10 nM and less than 1 nM, respectively.

On to `CCc1c(F)ccc2cc(O)cc(-c3ncc4c(N5CCC[C@@](C)(O)C5)nc(OC[C@@]56CCCN5[C@H](COC(=O)N5CC7(CCN(CC#Cc8ccc9c(c8)n(C)c(=O)n9C8CCC(=O)NC8=O)CC7)C5)CC6)nc4c3F)c12` (stereo partly drawn) [Compound 453, ((3S,7aS)-7a-(((7-(8-Ethyl-7-fluoro-3-hydroxynaphthalen-1-yl)-8-fluoro-4-((R)-3-hydroxy-3-methylpiperidin-1-yl)pyrido[4,3-d]pyrimidin-2-yl)oxy)methyl)hexahydro-1H-pyrrolizin-3-yl)methyl 7-(3-(1-(2,6-dioxopiperidin-3-yl)-3-methyl-2-oxo-2,3-dihydro-1H-benzo[d]imidazol-5-yl)prop-2-yn-1-yl)-2,7-diazaspiro[3.5]nonane-2-carboxylate], for which the DC50 was less than 100 nM on KRAS G12D (class symbols), less than 10 nM at KRAS G12V and less than 1 nM at KRAS.

Regarding `C#Cc1c(F)ccc2cc(O)cc(-c3ncc4c(N5CCCCC5)nc(OCC5(CN6CCN(CC7CCN(c8ccc9c(c8)n(C)c(=O)n9C8CCC(=O)NC8=O)CC7)CC6)CC5)nc4c3F)c12` (stereo not shown) [Compound 15], the DC50 was 100 to 300 nM at KRAS G12D (class symbols), greater than 100 nM on KRAS G12V and no less than 10 nM at KRAS. The same compound yielded a Dmax at KRAS G12D (class symbols) greater than 50%.

`CCc1c(F)ccc2cc(O)cc(-c3ncc4c(N5CCC[C@@](C)(O)C5)nc(OC[C@@]56CCCN5[C@H](COC(=O)N5CCC(OC7CCN(c8ccc9c(c8)n(C)c(=O)n9C8CCC(=O)NC8=O)CC7)CC5)CC6)nc4c3F)c12` (stereo partly drawn) [Compound 160, ((3S,7aS)-7a-(((7-(8-Ethyl-7-fluoro-3-hydroxynaphthalen-1-yl)-8-fluoro-4-((R)-3-hydroxyl-3-methylpiperidin-1-yl)pyrido[4,3-d]pyrimidin-2-yl)oxy)methyl)hexahydro-1H-pyrrolizin-3-yl)methyl 4-((1-(1-(2,6-dioxopiperidin-3-yl)-3-methyl-2-oxo-2,3-dihydro-1H-benzo[d]imidazol-5-yl)piperidin-4-yl)oxy)piperidine-1-carboxylate]: the DC50 on KRAS G12D (class symbols) was less than 100 nM; on KRAS G12V it was less than 10 nM; at KRAS, less than 1 nM.

As for `CCc1c(F)ccc2cc(O)cc(-c3ncc4c(N5CCC[C@@](C)(O)C5)nc(OC[C@@]56CCCN5C(CN5CCC(OCCCc7ccc8c(c7)n(C)c(=O)n8C7CCC(=O)NC7=O)CC5)CC6)nc4c3F)c12` (stereo partly drawn) [Compound 384, 3-(5-(3-((1-(((35,7aS)-7a-(((7-(8-Ethyl-7-fluoro-3-hydroxynaphthalen-1-yl)-8-fluoro-4-((R)-3-hydroxy-3-methylpiperidin-1-yl)pyrido[4,3-d]pyrimidin-2-yl)oxy)methyl)hexahydro-1H-pyrrolizin-3-yl)methyl)piperidin-4-yl)oxy)propyl)-3-methyl-2-oxo-2,3-dihydro-1H-benzo[d]imidazol-1-yl) piperidine-2,6-dione], the figures for the DC50 on KRAS G12D (class symbols), on KRAS G12V and at KRAS were less than 100 nM, 10 to 100 nM and 1 to 10 nM, respectively.

`CCc1c(F)ccc2cc(O)cc(-c3ncc4c(N5CCC[C@](C)(O)C5)nc(OC[C@]56CCCN5[C@@H](COC(=O)N5CC7CCC(C5)C7CN5CCC(c7ccc8c(c7)n(C)c(=O)n8C7CCC(=O)NC7=O)CC5)CC6)nc4c3F)c12` (stereo partly drawn) [Compound 391, ((3R,7aR)-7a-(((7-(8-ethyl-7-fluoro-3-hydroxynaphthalen-1-yl)-8-fluoro-4-((S)-3-hydroxy-3-methylpiperidin-1-yl)pyrido[4,3-d]pyrimidin-2-yl)oxy)methyl)hexahydro-1H-pyrrolizin-3-yl)methyl 8-((4-(1-(2,6-dioxopiperidin-3-yl)-3-methyl-2-oxo-2,3-dihydro-1H-benzo[d]imidazol-5-yl)piperidin-1-yl)methyl)-3-azabicyclo[3.2.1]octane-3-carboxylate]: the DC50 at KRAS G12D (class symbols) is less than 100 nM; at KRAS G12V, less than 10 nM; at KRAS, less than 1 nM.

With `CCc1c(F)ccc2cc(O)cc(-c3ncc4c(N5CCC[C@@](C)(O)C5)nc(OC[C@]56CCCN5[C@H](COC(=O)N5CCC(CCOc7ccc8c(c7)n(C)c(=O)n8C7CCC(=O)NC7=O)CC5)CC6)nc4c3F)c12` (stereo partly drawn) [Compound 300, ((3S,7aR)-7a-(((7-(8-ethyl-7-fluoro-3-hydroxynaphthalen-1-yl)-8-fluoro-4-((R)-3-hydroxy-3-methylpiperidin-1-yl)pyrido[4,3-d]pyrimidin-2-yl)oxy)methyl)hexahydro-1H-pyrrolizin-3-yl)methyl 4-(2-((1-(2,6-dioxopiperidin-3-yl)-3-methyl-2-oxo-2,3-dihydro-1H-benzo[d]imidazol-5-yl)oxy)ethyl)piperidine-1-carboxylate], the values for the DC50 at KRAS G12D (class symbols), at KRAS G12V and at KRAS were less than 100 nM, less than 10 nM and less than 1 nM, respectively.

Turning to `C#Cc1c(F)ccc2cc(O)cc(-c3ncc4c(N5CCC[C@@](C)(O)C5)nc(OC[C@@]56CCCN5[C@H](COC(=O)N5CCC(N7CC(N8CCC(c9ccc%10c(c9)n(C)c(=O)n%10C9CCC(=O)NC9=O)CC8)C7)CC5)CC6)nc4c3F)c12` (stereo partly drawn) [Compound 414, ((3S,7aS)-7a-(((7-(8-ethynyl-7-fluoro-3-hydroxynaphthalen-1-yl)-8-fluoro-4-((R)-3-hydroxy-3-methylpiperidin-1-yl)pyrido[4,3-d]pyrimidin-2-yl)oxy)methyl)hexahydro-1H-pyrrolizin-3-yl)methyl 4-(3-(4-(1-(2,6-dioxopiperidin-3-yl)-3-methyl-2-oxo-2,3-dihydro-1H-benzo[d]imidazol-5-yl)piperidin-1-yl)azetidin-1-yl)piperidine-1-carboxylate], the DC50 at KRAS G12D (class symbols) was less than 100 nM; at KRAS G12V, 10 to 100 nM; on KRAS it was no less than 10 nM.

Turning to `CCc1c(F)ccc2cc(O)cc(-c3ncc4c(N5CCC[C@@](C)(O)C5)nc(OC[C@@]56CCCN5[C@H](COC(=O)N5CCC(OCCC#Cc7ccc8c(c7)n(C)c(=O)n8C7CCC(=O)NC7=O)CC5)CC6)nc4c3F)c12` (stereo partly drawn) [Compound 371, ((3S,7aS)-7a-(((7-(8-ethyl-7-fluoro-3-hydroxynaphthalen-1-yl)-8-fluoro-4-((R)-3-hydroxy-3-methylpiperidin-1-yl)pyrido[4,3-d]pyrimidin-2-yl)oxy)methyl)hexahydro-1H-pyrrolizin-3-yl)methyl 4-((4-(1-(2,6-dioxopiperidin-3-yl)-3-methyl-2-oxo-2,3-dihydro-1H-benzo[d]imidazol-5-yl)but-3-yn-1-yl)oxy)piperidine-1-carboxylate], the values for the DC50 at KRAS G12D (class symbols), on KRAS G12V and on KRAS were less than 100 nM, less than 10 nM and 1 to 10 nM, respectively.

Turning to `Cn1c(=O)n(C2CCC(=O)NC2=O)c2ccc(C3CCN(CC4CCN(C(=O)OC[C@@H]5CC[C@]6(COc7nc(N8CCC[C@@](C)(O)C8)c8cnc(-c9cc(O)cc%10ccc(F)c(Cl)c9%10)c(F)c8n7)CCCN56)CC4)CC3)cc21` (stereo partly drawn) [Compound 409, ((3S,7aS)-7a-(((7-(8-chloro-7-fluoro-3-hydroxynaphthalen-1-yl)-8-fluoro-4-((R)-3-hydroxy-3-methylpiperidin-1-yl)pyrido[4,3-d]pyrimidin-2-yl)oxy)methyl)hexahydro-1H-pyrrolizin-3-yl)methyl 4-((4-(1-(2,6-dioxopiperidin-3-yl)-3-methyl-2-oxo-2,3-dihydro-1H-benzo[d]imidazol-5-yl)piperidin-1-yl)methyl)piperidine-1-carboxylate], the DC50 was less than 100 nM on KRAS G12D (class symbols), less than 10 nM at KRAS G12V and less than 1 nM at KRAS.

With `C#Cc1c(F)ccc2cc(O)cc(-c3ncc4c(N5CCC[C@@](C)(O)C5)nc(OC[C@@]56CCCN5[C@H](COC(=O)N5CCCC7(CN(CC8CCN(c9ccc%10c(c9)n(C)c(=O)n%10C9CCC(=O)NC9=O)CC8)C7)C5)CC6)nc4c3F)c12` (stereo partly drawn) [Compound 329, ((3S,7aS)-7a-(((7-(8-ethynyl-7-fluoro-3-hydroxynaphthalen-1-yl)-8-fluoro-4-((R)-3-hydroxy-3-methylpiperidin-1-yl)pyrido[4,3-d]pyrimidin-2-yl)oxy)methyl)hexahydro-1H-pyrrolizin-3-yl)methyl 2-((1-(1-(2,6-dioxopiperidin-3-yl)-3-methyl-2-oxo-2,3-dihydro-1H-benzo[d]imidazol-5-yl)piperidin-4-yl)methyl)-2,6-diazaspiro[3.5]nonane-6-carboxylate], the DC50 at KRAS G12D (numeric bounds given in place of class symbols) was greater than 100 nM; on KRAS G12V, greater than 100 nM; on KRAS, no less than 10 nM.
